Among the data in ChEMBL document CHEMBL5052856, “Inhibitors of apol1 and methods of using same” (2021) are IC50 values, retold here.

Molecules are shown by their SMILES.

This test has as its target Apolipoprotein L1 (Homo sapiens, UniProt O14791). Briefly: Inhibition of APOL1 G1 variant in human HEK293-T-REx cells measured by Thallium assay. The test is classed as cell-based.
The molecule `O=C(NCC1(O)COC1)NC[C@H]1C[C@H](c2c(-c3ccc(F)cc3)[nH]c3c(F)cc(F)cc32)C1` registered an IC50 of more than 1 µM.

With `O=C(NC[C@H]1CC[C@@H](CO)O1)NC[C@H]1C[C@H](c2c(-c3ccc(F)cc3)[nH]c3c(F)cc(F)cc32)C1`, the concentration for half-maximal inhibition (IC50) is more than 1 µM. Molecule `C[C@H](O)[C@H](CO)NC(=O)O[C@H]1C[C@H](c2c(-c3ccc(F)cc3)[nH]c3c(F)cc(F)cc32)C1` had a concentration for half-maximal inhibition (IC50) of more than 1 µM. The figure for `O=C(NC[C@H]1C[C@H](c2c(-c3ccc(F)cc3)[nH]c3c(F)cc(F)cc32)C1)NC(CO)C(F)(F)F` (stereo partly specified) is more than 1 µM; for `O=C(NCC(O)CO)O[C@H]1C[C@H](c2c(-c3ccc(F)cc3)[nH]c3c(F)cc(F)cc32)C1` (stereo partly specified) it is more than 1 µM. `CCC(O)CNC(=O)O[C@H]1C[C@H](c2c(-c3ccc(F)cc3)[nH]c3c(F)cc(F)cc32)C1` (stereo partly specified) showed an IC50 of more than 1 µM. In turn, `Cn1cnc(CNC(=O)O[C@H]2C[C@H](c3c(-c4ccc(F)cc4)[nH]c4c(F)cc(F)cc43)C2)c1` yielded an IC50 of more than 1 µM. Take `C[C@@H](O)CNC(=O)N(C)CC1CC(c2c(-c3ccc(F)cc3)[nH]c3c(F)cc(F)cc23)C1` (stereo partly specified): the IC50 is more than 1 µM. Next, `Cn1cc(CNC(=O)O[C@H]2C[C@H](c3c(-c4ccc(F)cc4)[nH]c4c(F)cc(F)cc43)C2)nn1`: more than 1 µM; `CN(CC1CC(c2c(-c3ccc(F)cc3)[nH]c3c(F)cc(F)cc23)C1)C(=O)NCc1cn(C)cn1` (stereo unspecified): more than 1 µM; `CC(O)C(C)NC(=O)O[C@H]1C[C@H](c2c(-c3ccc(F)cc3)[nH]c3c(F)cc(F)cc32)C1` (stereo partly specified): more than 1 µM. The figure for `C[C@H](CO)N(C)C(=O)NC[C@H]1C[C@H](c2c(-c3ccc(F)cc3)[nH]c3c(F)cc(F)cc32)C1` is more than 1 µM; for `COCC(C)NC(=O)O[C@H]1C[C@H](c2c(-c3ccc(F)cc3)[nH]c3c(F)cc(F)cc32)C1` (stereo partly specified) it is 0.00025 µM; for `CC(CO)N(C)C(=O)NC[C@H]1C[C@H](c2c(-c3ccc(F)cc3)[nH]c3c(F)cc(F)cc32)C1` (stereo partly specified) it is more than 1 µM. With `O=C(NCC1CC1)O[C@H]1C[C@H](c2c(-c3ccc(F)cc3)[nH]c3c(F)cc(F)cc32)C1`, the half-inhibitory concentration (IC50) is more than 1 µM. The figure for `CN(C(=O)NC[C@H]1C[C@H](c2c(-c3ccc(F)cc3)[nH]c3c(F)cc(F)cc32)C1)C1COCC1O` (stereo partly specified) is more than 1 µM; for `COC[C@H](C)NC(=O)O[C@H]1C[C@H](c2c(-c3ccc(F)cc3)[nH]c3c(F)cc(F)cc32)C1` it is more than 1 µM; for `CC1(O)CC(NC(=O)NC[C@H]2C[C@H](c3c(-c4ccc(F)cc4)[nH]c4c(F)cc(F)cc43)C2)C1` (stereo partly specified) it is more than 1 µM. Next, `O=C(NCC1(O)CC1)NC[C@H]1C[C@H](c2c(-c3ccc(F)cc3)[nH]c3c(F)cc(F)cc32)C1`: more than 1 µM; `CC1CC(NC(=O)NC[C@H]2C[C@H](c3c(-c4ccc(F)cc4)[nH]c4c(F)cc(F)cc43)C2)C(=O)O1` (stereo partly specified): more than 1 µM. Next, `O=C(NCc1ccco1)O[C@H]1C[C@H](c2c(-c3ccc(F)cc3)[nH]c3c(F)cc(F)cc32)C1`: more than 1 µM; `O=C(NC[C@H]1C[C@H](c2c(-c3ccc(F)cc3)[nH]c3c(F)cc(F)cc32)C1)NC1CC(O)C1` (stereo partly specified): more than 1 µM; `O=C(NC[C@H]1C[C@H](c2c(-c3ccc(F)cc3)[nH]c3c(F)cc(F)cc32)C1)NC1(CO)CCOC1` (stereo partly specified): more than 1 µM. With `CN(CC1CC(c2c(-c3ccc(F)cc3)[nH]c3c(F)cc(F)cc23)C1)C(=O)N1CCC1` (stereo unspecified), the concentration for half-maximal inhibition (IC50) was more than 1 µM. Regarding `CC1(C)CC(NC(=O)NC[C@H]2C[C@H](c3c(-c4ccc(F)cc4)[nH]c4c(F)cc(F)cc43)C2)C(=O)O1` (stereo partly specified), the IC50 is more than 1 µM.

With `CNC(=O)NC[C@H]1C[C@H](c2c(-c3ccc(F)cc3)[nH]c3c(F)cc(F)cc32)C1`, the IC50 was found to be 0.00025 µM. Next, `O=C(NC[C@H]1C[C@H](c2c(-c3ccc(F)cc3)[nH]c3c(F)cc(F)cc32)C1)NC1(CO)CC(F)(F)C1`: more than 1 µM; `O=C(NC1CC(O)C1)O[C@H]1C[C@H](c2c(-c3ccc(F)cc3)[nH]c3c(F)cc(F)cc32)C1` (stereo partly specified): more than 1 µM; `O=C(NC[C@H]1C[C@H](c2c(-c3ccc(F)cc3)[nH]c3c(F)cc(F)cc32)C1)N[C@H]1CC[C@H](O)C1`: more than 1 µM. The figure for `C[C@@H](CO)NC(=O)NC[C@H]1C[C@H](c2c(-c3ccc(F)cc3)[nH]c3c(F)cc(F)cc32)C1` is more than 1 µM; for `O=C(N[C@H]1COC[C@@H]1O)O[C@H]1C[C@H](c2c(-c3ccc(F)cc3)[nH]c3c(F)cc(F)cc32)C1` it is more than 1 µM.

Molecule `C[C@]1(NC(=O)NC[C@H]2C[C@H](c3c(-c4ccc(F)cc4)[nH]c4c(F)cc(F)cc43)C2)C[C@@H](O)C1` returned a 50% inhibitory concentration (IC50) of more than 1 µM. In turn, `CC1(C)CC(C)(NC(=O)NC[C@H]2C[C@H](c3c(-c4ccc(F)cc4)[nH]c4c(F)cc(F)cc43)C2)C(=O)O1` (stereo partly specified) displayed a half-inhibitory concentration (IC50) of more than 1 µM.

Turning to `Cc1ccc(CNC(=O)O[C@H]2C[C@H](c3c(-c4ccc(F)cc4)[nH]c4c(F)cc(F)cc43)C2)o1`, the IC50 is more than 1 µM. As to `C[C@H](CO)NC(=O)NC[C@H]1C[C@H](c2c(-c3ccc(F)cc3)[nH]c3c(F)cc(F)cc32)C1`, the IC50 is more than 1 µM. Next, `O=C(NCC1(CO)COC1)NC[C@H]1C[C@H](c2c(-c3ccc(F)cc3)[nH]c3c(F)cc(F)cc32)C1`: more than 1 µM; `CC1(NC(=O)NC[C@H]2C[C@H](c3c(-c4ccc(F)cc4)[nH]c4c(F)cc(F)cc43)C2)CCNC1=O` (stereo partly specified): more than 1 µM.

In the case of `C[C@H](O)CNC(=O)O[C@H]1C[C@H](c2c(-c3ccc(F)cc3)[nH]c3c(F)cc(F)cc32)C1`, the half-inhibitory concentration (IC50) was more than 1 µM.

As for `O=C(NCC1CCNC1=O)NC[C@H]1C[C@H](c2c(-c3ccc(F)cc3)[nH]c3c(F)cc(F)cc32)C1` (stereo partly specified), the half-maximal inhibitory concentration (IC50) is more than 1 µM. Next, `CC(C)(O)CNC(=O)NC[C@H]1C[C@H](c2c(-c3ccc(F)cc3)[nH]c3c(F)cc(F)cc32)C1`: more than 1 µM; `CO[C@H]1C[C@@H](NC(=O)O[C@H]2C[C@H](c3c(-c4ccc(F)cc4)[nH]c4c(F)cc(F)cc43)C2)C1`: more than 1 µM; `CNC(=O)N(C)CC1CC(c2c(-c3ccc(F)cc3)[nH]c3c(F)cc(F)cc23)C1` (stereo unspecified): more than 1 µM.

The molecule `C[C@H](O)CNC(=O)N(C)CC1CC(c2c(-c3ccc(F)cc3)[nH]c3c(F)cc(F)cc23)C1` (stereo partly specified) had a concentration for half-maximal inhibition (IC50) of more than 1 µM.

Molecule `O=C(NC[C@H]1C[C@H](c2c(-c3ccc(F)cc3)[nH]c3c(F)cc(F)cc32)C1)N[C@H]1C[C@H](O)C1` yielded a half-inhibitory concentration (IC50) of more than 1 µM. `O=C(NCCO)NC[C@H]1C[C@H](c2c(-c3ccc(F)cc3)[nH]c3c(F)cc(F)cc32)C1` gave a concentration for half-maximal inhibition (IC50) of more than 1 µM. The figure for `O=C(N[C@H]1CCOC1)O[C@H]1C[C@H](c2c(-c3ccc(F)cc3)[nH]c3c(F)cc(F)cc32)C1` is more than 1 µM. The figure for `O=C(NC[C@H]1C[C@H](c2c(-c3ccc(F)cc3)[nH]c3c(F)cc(F)cc32)C1)N[C@H]1CC[C@@H]1O` is more than 1 µM. The figure for `O=C(NC[C@H]1C[C@H](c2c(-c3ccc(F)cc3)[nH]c3c(F)cc(F)cc32)C1)N1CCC[C@@H]1CO` is more than 1 µM.

`C[C@@H](O)CNC(=O)O[C@H]1C[C@H](c2c(-c3ccc(F)cc3)[nH]c3c(F)cc(F)cc32)C1`: the concentration for half-maximal inhibition (IC50) is more than 1 µM.

`COC1CC1NC(=O)O[C@H]1C[C@H](c2c(-c3ccc(F)cc3)[nH]c3c(F)cc(F)cc32)C1` (stereo partly specified): the IC50 was more than 1 µM. Molecule `CC(C)(C)[C@H](CO)NC(=O)NC[C@H]1C[C@H](c2c(-c3ccc(F)cc3)[nH]c3c(F)cc(F)cc32)C1` had an IC50 of more than 1 µM. Next, `CC(C)[C@@H](CO)NC(=O)O[C@H]1C[C@H](c2c(-c3ccc(F)cc3)[nH]c3c(F)cc(F)cc32)C1`: more than 1 µM; `CC[C@H](CO)NC(=O)NC[C@H]1C[C@H](c2c(-c3ccc(F)cc3)[nH]c3c(F)cc(F)cc32)C1`: more than 1 µM. For `O=C(NCC1CCOC1)O[C@H]1C[C@H](c2c(-c3ccc(F)cc3)[nH]c3c(F)cc(F)cc32)C1` (stereo partly specified), the IC50 was more than 1 µM. The figure for `CC1(O)CC(NC(=O)O[C@H]2C[C@H](c3c(-c4ccc(F)cc4)[nH]c4c(F)cc(F)cc43)C2)C1` (stereo partly specified) is more than 1 µM; for `CC(C)C(CO)NC(=O)O[C@H]1C[C@H](c2c(-c3ccc(F)cc3)[nH]c3c(F)cc(F)cc32)C1` (stereo partly specified) it is more than 1 µM. Take `O=C(NC1CCOC1)O[C@H]1C[C@H](c2c(-c3ccc(F)cc3)[nH]c3c(F)cc(F)cc32)C1` (stereo partly specified): the half-inhibitory concentration (IC50) was more than 1 µM.

The molecule `Cc1cnc(CNC(=O)O[C@H]2C[C@H](c3c(-c4ccc(F)cc4)[nH]c4c(F)cc(F)cc43)C2)o1` had an IC50 of more than 1 µM. `CC[C@@H](CO)NC(=O)NC[C@H]1C[C@H](c2c(-c3ccc(F)cc3)[nH]c3c(F)cc(F)cc32)C1`: the IC50 is more than 1 µM. The figure for `O=C(NC[C@H](O)C(F)(F)F)NC[C@H]1C[C@H](c2c(-c3ccc(F)cc3)[nH]c3c(F)cc(F)cc32)C1` is more than 1 µM; for `O=C(NCc1ncc[nH]1)O[C@H]1C[C@H](c2c(-c3ccc(F)cc3)[nH]c3c(F)cc(F)cc32)C1` it is more than 1 µM; for `CC(CO)(CO)NC(=O)NC[C@H]1C[C@H](c2c(-c3ccc(F)cc3)[nH]c3c(F)cc(F)cc32)C1` it is more than 1 µM. Next, `C[C@@H](O)[C@@H](CO)NC(=O)O[C@H]1C[C@H](c2c(-c3ccc(F)cc3)[nH]c3c(F)cc(F)cc32)C1`: more than 1 µM.

The molecule `O=C(NC[C@H]1C[C@H](c2c(-c3ccc(F)cc3)[nH]c3c(F)cc(F)cc32)C1)N[C@H]1CC[C@H]1O` showed an IC50 of more than 1 µM.

In turn, `O=C(NCc1cn(CC(F)(F)F)cn1)O[C@H]1C[C@H](c2c(-c3ccc(F)cc3)[nH]c3c(F)cc(F)cc32)C1` displayed a half-maximal inhibitory concentration (IC50) of more than 1 µM. Next, `O=C(N[C@H](CO)C(F)(F)F)O[C@H]1C[C@H](c2c(-c3ccc(F)cc3)[nH]c3c(F)cc(F)cc32)C1`: more than 1 µM. The figure for `CC(O)(CO)CNC(=O)O[C@H]1C[C@H](c2c(-c3ccc(F)cc3)[nH]c3c(F)cc(F)cc32)C1` (stereo partly specified) is more than 1 µM. Take `CCNC(=O)NC[C@H]1C[C@H](c2c(-c3ccc(F)cc3)[nH]c3c(F)cc(F)cc32)C1`: the IC50 was more than 1 µM. In turn, `C[C@@H](O)CNC(=O)NC[C@H]1C[C@H](c2c(-c3ccc(F)cc3)[nH]c3c(F)cc(F)cc32)C1` displayed a concentration for half-maximal inhibition (IC50) of more than 1 µM. The figure for `Cc1cc(CNC(=O)O[C@H]2C[C@H](c3c(-c4ccc(F)cc4)[nH]c4c(F)cc(F)cc43)C2)on1` is more than 1 µM. In the case of `CN(CC1CC(c2c(-c3ccc(F)cc3)[nH]c3c(F)cc(F)cc23)C1)C(=O)NCCO` (stereo unspecified), the half-inhibitory concentration (IC50) was more than 1 µM.
